Results on one compound are retold here after patent US9556153B1, “JAK1 inhibitors” (Eli Lilly and Company, priority 2015, dated 2017).

Structures are written as SMILES.

In the test the target is JAK1 (Homo sapiens, UniProt P23458). The test can be described thus: Phospho-STAT3 (Tyr705) ACUMEN H1975-JAK1 cell-based assay. Also on record: endogenous in cells. The note with it: H1975 NSCLC cells, 4 hr; n=1; read-out: IC50, pSTAT3 (Tyr705) in H1975 cells. The method, then: Phospho-STAT3 (Tyr705) ACUMEN Protocol—H1975-JAK1 Cell-Based Assay
Sequence of JAK1 (P23458 whole entry): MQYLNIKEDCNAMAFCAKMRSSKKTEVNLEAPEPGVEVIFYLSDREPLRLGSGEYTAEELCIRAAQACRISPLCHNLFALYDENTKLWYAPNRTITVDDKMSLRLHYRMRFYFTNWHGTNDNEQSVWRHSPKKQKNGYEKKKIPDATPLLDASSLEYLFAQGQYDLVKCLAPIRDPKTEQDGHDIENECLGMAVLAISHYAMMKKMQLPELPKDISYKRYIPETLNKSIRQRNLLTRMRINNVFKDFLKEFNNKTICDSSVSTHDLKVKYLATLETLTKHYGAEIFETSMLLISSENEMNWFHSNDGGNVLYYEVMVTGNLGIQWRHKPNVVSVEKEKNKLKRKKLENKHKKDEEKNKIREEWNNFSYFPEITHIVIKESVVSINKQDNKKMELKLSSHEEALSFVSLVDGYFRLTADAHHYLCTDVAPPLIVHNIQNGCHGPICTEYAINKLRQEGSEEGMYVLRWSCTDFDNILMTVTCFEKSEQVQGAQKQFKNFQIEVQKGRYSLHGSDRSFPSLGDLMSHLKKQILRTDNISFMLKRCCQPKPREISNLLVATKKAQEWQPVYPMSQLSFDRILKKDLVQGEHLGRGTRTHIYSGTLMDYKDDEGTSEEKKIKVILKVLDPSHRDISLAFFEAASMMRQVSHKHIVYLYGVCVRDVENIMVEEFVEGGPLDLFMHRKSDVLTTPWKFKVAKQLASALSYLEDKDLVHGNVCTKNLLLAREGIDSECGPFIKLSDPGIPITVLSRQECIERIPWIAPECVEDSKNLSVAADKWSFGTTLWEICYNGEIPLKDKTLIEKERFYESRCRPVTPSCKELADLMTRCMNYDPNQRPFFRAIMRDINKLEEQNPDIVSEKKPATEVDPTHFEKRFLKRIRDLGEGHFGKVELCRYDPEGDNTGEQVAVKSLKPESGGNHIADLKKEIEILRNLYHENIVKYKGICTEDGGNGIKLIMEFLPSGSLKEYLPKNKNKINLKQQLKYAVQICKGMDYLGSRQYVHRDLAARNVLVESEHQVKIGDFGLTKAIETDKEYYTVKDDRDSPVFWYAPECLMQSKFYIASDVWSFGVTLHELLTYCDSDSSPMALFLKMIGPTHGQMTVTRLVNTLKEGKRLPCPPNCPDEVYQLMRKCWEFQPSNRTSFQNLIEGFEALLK
An H1975-JAK1 cellular assay is used to confirm the potency of test compounds in NSCLC cells in which the STAT3 pathway is activated by autocrine IL-6 loop. […]
On Day 2, perform the following steps sequentially: wash 2 times with 100 μL PBS; add 50 μL of secondary antibody (1:1000; Ab2° goat anti-mouse IgG); incubate for 1 hour at RT in the dark; wash 2 times with 100 μL PBS; add 100 μL of Propidium Iodide (1:1000 in PBS from commercial solution) containing RNAse (50 μg/mL in PBS); seal plates with transparent film and incubate at RT for 2 hours before reading; read on Acumen Explorer (set parameter based on positive and negative well). […]

On to `Cc1cc(Nc2cc(O[C@H]3CC[C@@H](NC[C@@H](O)C(F)(F)F)CC3)cc3c2ncn3C)nn1C` [Example 1, (2R)-3-{[cis-4-({4-[(1,5-Dimethyl-1H-pyrazol-3-yl)amino]-1-methyl-1H-benzimidazol-6-yl}oxy)cyclohexyl]amino}-1,1,1-trifluoropropan-2-ol], for which the IC50 turned out to be 297 nM.
